Measured values reported in ChEMBL document CHEMBL4152386, “Discovery of a Novel Inhaled PI3Kδ Inhibitor for the Treatment of Respiratory Diseases” (J Med Chem, 2018).

Columns and labels:
PI3K p110 beta/p85 alpha = PI3K p110 beta/p85 alpha (Homo sapiens, UniProt P42338)
Description: Inhibition of recombinant human N-terminal His6-tagged full length p110beta/recombinant human full length p85alpha using PIP2 as substrate preincubated for 30 mins followed by substrate addition and HTRF assay

[1] = target: PI3-kinase p110-alpha/p85-alpha (Homo sapiens, UniProt P42336)
Description: Inhibition of recombinant human N-terminal His6-tagged full length p110alpha/recombinant human full length p85alpha using PIP2 as substrate preincubated for 30 mins followed by substrate addition by HTRF assay

[2] = target: Phosphatidylinositol 4,5-bisphosphate 3-kinase catalytic subunit gamma isoform (Homo sapiens, UniProt P48736); assay: Inhibition of recombinant human N-terminal His6-tagged full length p110gamma using PIP2 as substrate preincubated for 30 mins followed by substrate addition by HTRF assay
Chain of Phosphatidylinositol 4,5-bisphosphate 3-kinase catalytic subunit gamma isoform (P48736 whole entry, canonical isoform): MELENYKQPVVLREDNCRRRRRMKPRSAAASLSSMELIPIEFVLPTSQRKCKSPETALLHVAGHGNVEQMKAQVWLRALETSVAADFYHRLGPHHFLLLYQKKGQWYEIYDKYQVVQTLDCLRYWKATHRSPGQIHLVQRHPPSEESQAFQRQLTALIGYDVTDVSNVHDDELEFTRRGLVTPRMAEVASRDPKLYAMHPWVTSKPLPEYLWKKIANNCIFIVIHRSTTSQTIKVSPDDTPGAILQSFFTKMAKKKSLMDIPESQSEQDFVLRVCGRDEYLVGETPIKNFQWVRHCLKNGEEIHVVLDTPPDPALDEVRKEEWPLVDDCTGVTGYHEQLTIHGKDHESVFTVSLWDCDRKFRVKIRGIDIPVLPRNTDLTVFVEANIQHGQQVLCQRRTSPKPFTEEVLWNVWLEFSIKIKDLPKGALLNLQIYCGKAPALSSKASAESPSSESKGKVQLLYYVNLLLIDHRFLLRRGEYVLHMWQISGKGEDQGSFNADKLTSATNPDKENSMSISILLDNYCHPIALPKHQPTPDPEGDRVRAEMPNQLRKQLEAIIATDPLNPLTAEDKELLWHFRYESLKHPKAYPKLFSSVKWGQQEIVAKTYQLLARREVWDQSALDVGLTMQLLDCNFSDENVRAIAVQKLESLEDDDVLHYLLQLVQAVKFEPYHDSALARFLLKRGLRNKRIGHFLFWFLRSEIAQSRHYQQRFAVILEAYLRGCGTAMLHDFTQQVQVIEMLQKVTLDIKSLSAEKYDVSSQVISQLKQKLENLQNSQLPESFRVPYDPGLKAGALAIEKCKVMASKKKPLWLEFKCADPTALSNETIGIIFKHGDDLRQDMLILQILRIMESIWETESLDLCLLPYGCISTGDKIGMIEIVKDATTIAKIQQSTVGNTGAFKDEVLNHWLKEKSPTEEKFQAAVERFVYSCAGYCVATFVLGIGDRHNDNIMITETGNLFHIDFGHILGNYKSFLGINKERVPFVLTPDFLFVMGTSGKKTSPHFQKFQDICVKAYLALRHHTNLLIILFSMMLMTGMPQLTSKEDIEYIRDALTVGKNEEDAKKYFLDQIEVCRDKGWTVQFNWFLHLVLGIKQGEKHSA

[3] = target: PI3-kinase p110-delta/p85-alpha (Homo sapiens, UniProt O00329)
Chain of PI3-kinase p110-delta/p85-alpha (P27986 whole entry): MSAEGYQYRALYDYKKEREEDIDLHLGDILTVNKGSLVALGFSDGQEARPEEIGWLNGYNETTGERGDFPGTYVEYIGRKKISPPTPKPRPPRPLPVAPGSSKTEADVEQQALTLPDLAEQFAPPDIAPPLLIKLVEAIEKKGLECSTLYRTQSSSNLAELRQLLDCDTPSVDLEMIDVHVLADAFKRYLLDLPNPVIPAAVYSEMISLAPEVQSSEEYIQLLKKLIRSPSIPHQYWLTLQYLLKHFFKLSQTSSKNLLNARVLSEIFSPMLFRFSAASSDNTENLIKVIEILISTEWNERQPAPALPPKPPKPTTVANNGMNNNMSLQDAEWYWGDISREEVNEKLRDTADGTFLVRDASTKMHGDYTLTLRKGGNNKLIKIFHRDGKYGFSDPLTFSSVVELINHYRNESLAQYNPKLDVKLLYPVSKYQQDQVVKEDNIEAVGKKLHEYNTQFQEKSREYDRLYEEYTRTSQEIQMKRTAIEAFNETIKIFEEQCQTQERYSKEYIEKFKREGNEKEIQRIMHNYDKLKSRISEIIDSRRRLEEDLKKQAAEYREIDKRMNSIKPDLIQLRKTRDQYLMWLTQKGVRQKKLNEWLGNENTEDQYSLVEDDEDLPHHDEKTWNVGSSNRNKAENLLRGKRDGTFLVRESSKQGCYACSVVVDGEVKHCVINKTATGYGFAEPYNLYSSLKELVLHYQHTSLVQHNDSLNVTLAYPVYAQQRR
Chain of PI3-kinase p110-delta/p85-alpha (O00329 whole entry): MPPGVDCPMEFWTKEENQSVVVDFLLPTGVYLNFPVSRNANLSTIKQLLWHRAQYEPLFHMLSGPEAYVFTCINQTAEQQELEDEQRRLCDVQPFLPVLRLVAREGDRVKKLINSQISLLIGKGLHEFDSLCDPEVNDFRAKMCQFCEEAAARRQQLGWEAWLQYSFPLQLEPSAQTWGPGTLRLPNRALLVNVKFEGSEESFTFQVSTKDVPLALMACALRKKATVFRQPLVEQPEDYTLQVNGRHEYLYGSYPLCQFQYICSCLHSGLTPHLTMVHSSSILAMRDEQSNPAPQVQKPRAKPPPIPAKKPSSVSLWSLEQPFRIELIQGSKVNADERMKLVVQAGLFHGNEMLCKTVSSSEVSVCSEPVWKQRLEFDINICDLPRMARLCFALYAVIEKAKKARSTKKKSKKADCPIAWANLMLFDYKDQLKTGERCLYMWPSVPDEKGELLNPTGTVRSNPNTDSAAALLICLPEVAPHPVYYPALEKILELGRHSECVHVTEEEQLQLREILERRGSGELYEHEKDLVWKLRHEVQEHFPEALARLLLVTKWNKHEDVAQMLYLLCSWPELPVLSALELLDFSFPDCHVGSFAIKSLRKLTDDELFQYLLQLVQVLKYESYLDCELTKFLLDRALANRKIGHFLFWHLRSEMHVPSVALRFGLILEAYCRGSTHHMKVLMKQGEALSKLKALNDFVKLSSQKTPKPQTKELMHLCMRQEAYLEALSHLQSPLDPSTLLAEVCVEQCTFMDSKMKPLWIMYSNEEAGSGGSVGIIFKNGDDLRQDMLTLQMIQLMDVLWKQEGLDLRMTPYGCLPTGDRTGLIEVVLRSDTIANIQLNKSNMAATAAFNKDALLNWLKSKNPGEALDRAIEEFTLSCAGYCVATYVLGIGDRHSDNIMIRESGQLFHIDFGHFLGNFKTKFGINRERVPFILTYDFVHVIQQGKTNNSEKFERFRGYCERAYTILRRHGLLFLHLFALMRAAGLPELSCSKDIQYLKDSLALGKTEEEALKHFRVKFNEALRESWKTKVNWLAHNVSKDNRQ
Description: Inhibition of recombinant human N-terminal His-tagged full length p110delta/recombinant human full length p85alpha using PIP2 as substrate preincubated for 30 mins followed by substrate addition by HTRF assay

[4] = Drug metabolism in rat liver microsomes assessed as disappearance of parent compound at 5 uM after 30 mins in presence of NADPH by UPLC-MS/MS analysis; assay type: ADME, microsome; conditions: read-out: Drug metabolism
[5] = Drug metabolism in human liver microsomes assessed as disappearance of parent compound at 5 uM after 30 mins in presence of NADPH by UPLC-MS/MS analysis; assay type: ADME, microsome; conditions: read-out: Drug metabolism
[6] = Drug metabolism in human liver microsomes assessed as disappearance of parent compound at 5 uM preincubated for 3 mins followed UDPG addition and measured after 120 mins by UPLC-MS/MS analysis; assay type: ADME, microsome; conditions: read-out: Drug metabolism
[7] = Drug metabolism in rat liver microsomes assessed as disappearance of parent compound at 5 uM preincubated for 3 mins followed UDPG addition and measured after 120 mins by UPLC-MS/MS analysis; assay type: ADME, microsome; conditions: read-out: Drug metabolism
Rattus norvegicus [8] = assay: (§1) Anti-inflammatory activity in Brown Norway rat model of ovalbumin-induced inflammation assessed inhibition of neutrophil infiltration in bronchoalveolar lavage at 0.3 mg/kg, it administered 1 hr before ovalbumin aerosol challenge and measured 24 hrs post challenge by hematology analysis relative to control; assay type: functional; conditions: inhaled or nasal
Rattus norvegicus [9] = assay: as §1, with “eosinophil” for “neutrophil”; assay type: functional; conditions: inhaled or nasal

Chain of PI3K p110 beta/p85 alpha (P27986 whole entry): as the sequence (P27986 whole entry) above
Chain of PI3K p110 beta/p85 alpha (P42338 whole entry): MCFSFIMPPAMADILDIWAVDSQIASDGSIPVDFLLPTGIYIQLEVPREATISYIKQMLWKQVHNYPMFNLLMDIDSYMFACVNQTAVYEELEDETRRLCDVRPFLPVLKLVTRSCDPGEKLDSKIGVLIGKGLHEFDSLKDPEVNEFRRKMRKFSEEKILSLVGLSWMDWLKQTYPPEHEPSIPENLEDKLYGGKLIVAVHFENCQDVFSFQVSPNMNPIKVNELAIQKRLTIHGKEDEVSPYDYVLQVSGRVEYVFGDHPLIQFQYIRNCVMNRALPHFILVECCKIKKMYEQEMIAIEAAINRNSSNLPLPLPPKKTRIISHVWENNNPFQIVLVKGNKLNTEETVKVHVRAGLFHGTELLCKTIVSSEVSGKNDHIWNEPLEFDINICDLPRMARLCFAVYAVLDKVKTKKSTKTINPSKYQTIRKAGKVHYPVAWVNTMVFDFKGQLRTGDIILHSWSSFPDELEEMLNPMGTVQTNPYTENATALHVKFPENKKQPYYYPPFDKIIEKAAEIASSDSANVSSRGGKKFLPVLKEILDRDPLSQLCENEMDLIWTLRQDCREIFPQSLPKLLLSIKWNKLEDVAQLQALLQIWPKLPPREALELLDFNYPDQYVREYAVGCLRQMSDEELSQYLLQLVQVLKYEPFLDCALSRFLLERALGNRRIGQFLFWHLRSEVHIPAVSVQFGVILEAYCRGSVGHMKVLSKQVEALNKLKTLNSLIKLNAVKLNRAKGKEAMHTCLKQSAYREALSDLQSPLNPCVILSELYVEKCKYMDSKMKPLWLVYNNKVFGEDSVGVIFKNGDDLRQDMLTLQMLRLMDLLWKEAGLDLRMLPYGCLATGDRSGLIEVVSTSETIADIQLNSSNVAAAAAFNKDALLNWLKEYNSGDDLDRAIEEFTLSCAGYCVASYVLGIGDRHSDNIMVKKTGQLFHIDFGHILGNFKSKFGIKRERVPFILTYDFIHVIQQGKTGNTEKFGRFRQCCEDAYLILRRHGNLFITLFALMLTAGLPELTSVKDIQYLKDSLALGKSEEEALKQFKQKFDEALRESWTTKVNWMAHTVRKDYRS
Chain of PI3-kinase p110-alpha/p85-alpha (P27986 whole entry, canonical isoform): as the sequence (P27986 whole entry) above
Chain of PI3-kinase p110-alpha/p85-alpha (P42336 whole entry, canonical isoform): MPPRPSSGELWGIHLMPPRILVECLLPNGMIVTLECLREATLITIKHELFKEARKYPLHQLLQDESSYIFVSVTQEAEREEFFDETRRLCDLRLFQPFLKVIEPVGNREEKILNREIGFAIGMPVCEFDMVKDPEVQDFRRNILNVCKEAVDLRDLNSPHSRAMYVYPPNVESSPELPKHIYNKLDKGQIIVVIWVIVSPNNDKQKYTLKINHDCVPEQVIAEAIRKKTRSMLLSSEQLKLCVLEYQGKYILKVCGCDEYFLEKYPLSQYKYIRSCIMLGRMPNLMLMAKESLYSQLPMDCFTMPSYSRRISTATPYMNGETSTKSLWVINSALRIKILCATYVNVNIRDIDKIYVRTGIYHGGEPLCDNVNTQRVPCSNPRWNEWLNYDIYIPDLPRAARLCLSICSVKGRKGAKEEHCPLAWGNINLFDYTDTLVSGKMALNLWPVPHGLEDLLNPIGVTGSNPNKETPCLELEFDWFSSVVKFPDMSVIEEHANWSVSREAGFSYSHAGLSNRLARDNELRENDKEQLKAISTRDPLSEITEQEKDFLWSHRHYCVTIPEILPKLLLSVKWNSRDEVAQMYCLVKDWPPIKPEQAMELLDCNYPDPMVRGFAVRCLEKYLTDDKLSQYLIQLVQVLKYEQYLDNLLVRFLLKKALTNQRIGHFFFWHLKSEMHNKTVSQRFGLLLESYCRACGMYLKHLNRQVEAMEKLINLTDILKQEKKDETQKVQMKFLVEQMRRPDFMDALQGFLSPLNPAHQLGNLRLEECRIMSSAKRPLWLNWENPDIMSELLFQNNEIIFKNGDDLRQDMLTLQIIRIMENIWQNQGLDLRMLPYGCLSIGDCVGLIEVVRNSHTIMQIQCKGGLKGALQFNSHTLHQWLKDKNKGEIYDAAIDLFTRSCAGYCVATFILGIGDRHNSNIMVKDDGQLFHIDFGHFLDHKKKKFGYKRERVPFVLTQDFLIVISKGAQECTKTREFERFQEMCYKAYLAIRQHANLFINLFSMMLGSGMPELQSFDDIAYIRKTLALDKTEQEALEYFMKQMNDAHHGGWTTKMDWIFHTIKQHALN

SMILES	IC50 (PI3K p110 beta/p85 alpha) [nM]	IC50 [1] [nM]	IC50 [2] [nM]	IC50 [3] [nM]	metabolised at 0.5 h, 5 µM [4] [%]	metabolised at 0.5 h, 5 µM [5] [%]	metabolised at 2 h, 5 µM [6] [%]	metabolised at 2 h, 5 µM [7] [%]	inhibition in vivo at 0.3 mg/kg (Rattus norvegicus [8]) [%]	inhibition in vivo at 0.3 mg/kg (Rattus norvegicus [9]) [%]
Cc1ccn2nc([C@H](C)Nc3ncnc(N)c3C#N)n(-c3ccccc3)c(=O)c12	120	2300	65	1						
C[C@H](Nc1ncnc(N)c1C#N)c1nn2cccc2c(=O)n1-c1ccccc1					16					
Cc1ccn2nc([C@H](C)Nc3ncnc4[nH]cc(-c5cc(O)cc(F)c5)c34)n(-c3ccccc3)c(=O)c12	2.3	9	0.6	0.2						
Cc1ccn2nc([C@H](C)Nc3ncnc(N)c3-c3cnc(N)nc3)n(-c3ccccc3)c(=O)c12	360		120			27	6			
Cc1ccn2nc([C@H](C)Nc3ncnc(N)c3-c3ccc4cc[nH]c4c3)n(-c3ccccc3)c(=O)c12	140	8500	420		47	50	9.6			
Cc1ccn2nc([C@H](C)Nc3ncnc(N)c3Cc3cccc(O)c3)n(-c3ccccc3)c(=O)c12	3000	6600		22						
Cc1ccn2nc([C@H](C)Nc3ncnc(N)c3C(=O)Nc3cccc(O)c3)n(-c3ccccc3)c(=O)c12	39	1400	10	0.2	42	60				
Cc1ccn2nc([C@H](C)Nc3ncnc4[nH]cc(Cc5cccc(O)c5)c34)n(-c3ccccc3)c(=O)c12	210	2900	64	1.4	72	100				
Cc1ccn2nc([C@H](C)Nc3ncnc(N)c3-c3cc(O)cc(C(F)(F)F)c3)n(-c3ccccc3)c(=O)c12	10	310	6.8	0.2						
Cc1ccn2nc([C@H](C)Nc3ncnc4[nH]cc(-c5cn[nH]c5)c34)n(-c3ccccc3)c(=O)c12	4.3			0.4	21	97				
Cc1ccn2nc([C@H](C)Nc3ncnc4[nH]cc(Sc5cccc(O)c5)c34)n(-c3ccccc3)c(=O)c12	170	770		1	64	99	84	74		
Cc1ccn2nc([C@H](C)Nc3ncnc(N)c3-c3cc(O)cc(F)c3)n(-c3ccccc3)c(=O)c12	110	1900	40	0.6	75	84	74	26		
Cc1ccn2nc([C@H](C)Nc3ncnc4[nH]cc(-c5cc(C(F)(F)F)ccc5O)c34)n(-c3ccccc3)c(=O)c12	7.3	250	3.3	0.3	21	58				
Cc1ccn2nc([C@H](C)Nc3ncnc4[nH]cc(-c5cccc6cc[nH]c56)c34)n(-c3ccccc3)c(=O)c12	79			1.3						
Cc1ccn2nc([C@H](C)Nc3ncnc(N)c3-c3ccc4oc(=O)[nH]c4c3)n(-c3ccccc3)c(=O)c12	1300		430	11						
Cc1ccn2nc([C@H](C)Nc3ncnc4[nH]cc(-c5cnn(C)c5)c34)n(-c3ccccc3)c(=O)c12	22	230	3.6	0.2	36	91	91	6		

SMILES	IC50 (PI3K p110 beta/p85 alpha) [nM]	IC50 [1] [nM]	IC50 [2] [nM]	IC50 [3] [nM]	metabolised at 0.5 h, 5 µM [4] [%]	metabolised at 0.5 h, 5 µM [5] [%]	metabolised at 2 h, 5 µM [6] [%]	metabolised at 2 h, 5 µM [7] [%]	inhibition in vivo at 0.3 mg/kg (Rattus norvegicus [8]) [%]	inhibition in vivo at 0.3 mg/kg (Rattus norvegicus [9]) [%]
Cc1ccn2nc([C@H](C)Nc3ncnc(N)c3-c3cc(O)cc(Cl)c3)n(-c3ccccc3)c(=O)c12	57	560		0.2	54	55	97	83		
COc1cccc(-c2c[nH]c3ncnc(N[C@@H](C)c4nn5ccc(C)c5c(=O)n4-c4ccccc4)c23)c1O	14	760	81	0.2	58	99	90	44		
Cc1ccn2nc([C@H](C)Nc3ncnc(N)c3-c3ccc(O)cc3)n(-c3ccccc3)c(=O)c12	1700	8400	160	22	22	84	76	21		
Cc1ccn2nc([C@H](C)Nc3ncnc4[nH]cc(-c5cc(O)cc(NS(C)(=O)=O)c5)c34)n(-c3ccccc3)c(=O)c12	2.5	22	0.7	0.2	16	67	94	28		
Cc1ccn2nc([C@H](C)Nc3ncnc(N)c3Sc3cccc(O)c3)n(-c3ccccc3)c(=O)c12	950	8400	45	1.8	94	100				
Cc1ccn2nc([C@H](C)Nc3ncnc4[nH]cc(-c5cccc6[nH]ccc56)c34)n(-c3ccccc3)c(=O)c12	12	410	17	0.2	74	92				
Cc1ccn2nc([C@H](C)Nc3ncnc(N)c3-c3cccc(NS(C)(=O)=O)c3)n(-c3ccccc3)c(=O)c12	37	730	1.7	0.3	32	97				
COc1cc(-c2c[nH]c3ncnc(N[C@@H](C)c4nn5ccc(C)c5c(=O)n4-c4ccccc4)c23)ccc1O	1.3	1.2	0.3	0.2						
Cc1ccn2nc([C@H](C)Nc3ncnc4[nH]cc(-c5cccc(NS(C)(=O)=O)c5)c34)n(-c3ccccc3)c(=O)c12	29	190	3.1	0.3	23	74				
Cc1ccn2nc([C@H](C)Nc3ncnc4[nH]cc(C(=O)Nc5cccc(O)c5)c34)n(-c3ccccc3)c(=O)c12	230	1000	13	2						
Cc1ccn2nc([C@H](C)Nc3ncnc4[nH]cc(-c5cccc(F)c5O)c34)n(-c3ccccc3)c(=O)c12	52	1000	12	1.9	27	41				
Cc1ccn2nc([C@H](C)Nc3ncnc4[nH]cc(-c5ccccc5O)c34)n(-c3ccccc3)c(=O)c12				5.1	72	99				
Cc1ccn2nc([C@H](C)Nc3ncnc(N)c3-c3cc(O)cc(NS(C)(=O)=O)c3)n(-c3ccccc3)c(=O)c12			15							
Cc1ccn2nc([C@H](C)Nc3ncnc4[nH]cc(-c5ccc(O)cc5)c34)n(-c3ccccc3)c(=O)c12	4.1	110	0.7	0.4						
C[C@@H]1C[C@H]2[C@@H]3C[C@H](F)C4=CC(=O)C=C[C@]4(C)[C@@]3(F)[C@@H](O)C[C@]2(C)[C@@]1(O)C(=O)SCF [FLUTICASONE]									89	82
